According to patent publication US20080153910A1, “LYSINE IN THERAPEUTIC ANGIOGENESIS FOR CARDIAC AND CEREBRAL/NEURAL REPERFUSION” (priority 2001, published 2008):
“Also recorded” adds a separate entry of the source.

Columns and labels:
protein synthesis = test: 35S-Methionine incorporation in acute surgical wound tissue; assay type: in vivo; settings: 72 hrs post surgery, topical, vs control wound, HCl
collagen synthesis = test: 14C-Glycine incorporation in wound tissue; assay type: in vivo; settings: experimental wound, 100% (w/w) topical, 0.25 to 100 mg/sq. in
Source text: As glycine is present at every third position in the primary sequence of Collagen, ^14C-Glycine incorporation in the wound tissue was supposed to give an idea of differential collagen synthesis in experimental and control wounds.

adherent cellular growth = test: Cellular expansion in culture (in-vitro); assay type: cell-based; settings: compared to l-lysine; d-Lysine about 10 mcg/ml added load
Source text: Photo 12, cell culture photographs of d-Lysine (about 10 mcg/ml of added load, in addition to the usual load of I-Lysine, whatever was there in the media as the metabolic requirement) mediated cellular expansion in culture. […] In-situ controlled and physiological expansion of constituent cells in a wound bed, including the endothelial cells and their mediation of normal angiogenic process, mediate only by lysine/derivative(s), without addition/intervention of any other additive(s), whatsoever, is the essence of present invention.

angiogenesis = test: Oligo-lysine and d-lysine induced cell expansion and angiogenesis in-vivo; settings: compared to l-lysine
hybridoma cell mass = settings: compared to other physico-chemical means (Datta, D et al. 1997); cited from earlier work
acute surgical wounds = test: Acute surgical wound model (full thickness skin incisions); assay type: in vivo, Rabbits
Method: Rabbits (about 1.5 Kg body wt.) from Haffkine Biopharmaceuticals, Mumbai, India were used for acute surgical wound model experimentations.
For acute surgical wound experiments, dorsal paravertebral skin was shaved in both the groups. Full thickness skin incisions (about 1 inch long) were made on either side of the vertebral column under local anaesthesia. In the experimental group, “lysine” in powder form(s) was instilled/spinkled/applied (about 10-15 mg) in each wound and the wounds were closed by single suture each to keep the edges apposed. No surface/systemic antibiotics were given to the animals dressed with “lysine”. Similar treatments were given to the control wounds except for omitting the “lysine” dressing altogether. Control wounds were protected with surface antibiotics ointment, applied at the time of each dressing. The wounds were covered with adhesive plasters in both the groups. Dressings were replaced every 48-72 hrs.
(§1) Tissue biopsies were taken from both groups—either animals or human beings—from appropriate wound site(s)/cardiac tissue (myocardium) at various time points post surgery/applications/dressings with the active ingredient(s), fixed at room temp. for 24 hrs. in formal saline (4% v/v). Tissue sections were stained with haematoxylin and eosin and observed under light microscope.
For examination of wound tissues under scanning electron microscope, skin tissues were taken (about 1.5 inch square) surgically under local anaesthesia in such a way that the original wound incision lied at the center of this piece of skin tissue, which was fixed in formal saline (4%) for 24 hrs at room temp. and pressure. Before mounting on to the observation stub with the help of a double faced adhesive tape, the wet tissues were dried adequately first with tissue papers and then at 37 degree Centrigrade incubator for about 2 hrs. Finally the dried tissues were cut with scissors in such a way that the cut line in each case was perpendicular to the original incision line. The finally prepared samples were gold coated in a hummer for around 4 minutes in vacuum and examined in a scanning electron microscope (Jeol).

ischaemic myocardium = test: Cardiac angiogenesis / coronary ischaemia model; assay type: in vivo, sheep
Method: For cardiac angiogenesis experiments, healthy immunized adult sheep, weighing 20-30 Kgs were selected. The selected animals underwent routine blood tests and echocardiography prior to surgery which acted as the base line data. Under general anaesthesia, 4 sheep were operated through a left thoracotomy. […] In one of the experimental animals, in addition to the intramuscular injection of lysine, about 10 ml of the saturated solution of lysine was injected at the root of the aorta through a pig-tail catheter passed retrogradely through the descending thoracic aorta. […] Post-operative echocardiogram were done in all the animals at 96 hrs post-surgery to assess the left ventricular wall motion. Two weeks post-surgery echocardiograms were done to assess left ventricular wall motion. The animals were sacrificed and autopsy of the hearts were done for examination of the degree of angiogenesis.
as §1, with “microscope. […]” for “microscope.”

chronic wounds = test: Controlled open trial of lysine in chronic human wounds; assay type: in vivo
Source text: Chronic wounds of different anatomical locations as well as etiology were included in the controlled open trial of “lysine” for it's/their ability to induce angiogenesis and induction of the healthy granulation tissue formation in these chronic wounds. These included diabetic wounds and ulcers of various durations and severity, bed sores and pressure sores of various durations, infected wounds and cellulitic wounds of various origins, burns of different degrees and extents—both infected and otherwise, amputations, skingrafts, venous ulcers and even leprotic wounds and ulcers of long standing.
The wounds were debrided manually with gauge pieces soaked in normal saline to the point of bleeding of smaller vessels at the base of the wounds (wound-bed). Some of the chronic wounds were debrided surgically depending on the severity of the wound condition(s). Dressings were done with adequate amounts of the amino acid and/derivative(s) applied to the wound site(s) topically/locally. Wounds were closed with moistened gauge piece and adhesive tapes and the procedure repeated every 72-96 hrs. This approach constituted the experimental group subjects. In the control groups, conventional therapy were instituted both in terms of surgical/manual/enzymatic debridements as well as applying usual medications e.g. betadine, salutyl (a preparation which removes ischaemia by inducing angiogenesis in ischaemic wounds), trypsin, chymotrypsin, metronidazole preparations, silver sulfadiazine, regranex (a PDGF based healing agent containing “small” amount of the cationic amino acid lysine as “stabilizing agent”, along with quite a few other additives and ingredients), various surface antibiotics etc., depending on the clinical condition in question.
as §1

Cl.NCCCC[C@H](N)C(=O)O [L-lysine HCl]
35S-Methionine incorporation (protein synthesis; listed as 100% (w/w) powder formulation): Significant difference | 35S-Methionine incorporation (protein synthesis; listed as amino acid): Significantly more | 14C-Glycine incorporation (collagen synthesis): Comparatively low incorporation

NCCCC[C@@H](N)C(=O)O [d-Lysine]
cellular expansion / growth in-vitro (adherent cellular growth): equally effective | angiogenesis in-vivo (angiogenesis): equally effective | expansion of cells in-vivo (angiogenesis): equally effective

NCCCC[C@H](N)C(=O)O [lysine, Lysine]
expansion of biomass (cell population) (hybridoma cell mass): expand the biomass (cell population) at the least possible time | granulation tissue (scanning electron microscopy) (acute surgical wounds; acute surgical incision dressed with topically applied lysine, 72 hrs post surgery): spongy granulation tissue | dividing cells in-vivo (acute surgical wounds; acute surgical incision model, systemic application): stratified layers of dividing cells | histopathology: cellular thickening from basal keratinocyte layer (acute surgical wounds; rabbit, experimental vs control wound): extensive cellular thickening from the basal keratinocyte layer | granulation tissue (scanning electron microscopy) (acute surgical wounds; systemic lysine, i.p. injection, 5 ml, 5 mg/ml): spongy granulation tissue in the vicinity of the incision | echocardiography: movement of myocardium in ischaemic zones (ischaemic myocardium; 96 hrs post surgery): definite non-asynchronous movement of the myocardium | hierarchical nature of the angiogenic response (ischaemic myocardium; 21 days post surgery): capillaries filled with blood cells | angiogenic response in ischaemic cardiac muscle tissue (ischaemic myocardium; 21 days post surgery, vs control): extensive angiogenic response | histopathology: angiogenic response (ischaemic myocardium; around two-weeks, vs control): advanced degree of matured angiogenic response | in-situ tissue repair (chronic wounds; all types of acute and chronic wounds of both animal and human origin): excellent tissue regeneration in-situ | granulation tissue / angiogenic response (chronic wounds; bed sore, about two weeks of topical application): Extensive granulation tissue and profuse angiogenic response | time to skin graft (chronic wounds; cellulitic wound following 3rd degree burn): around two weeks | granulation/angiogenic tissue in wound bed (chronic wounds; cellulitic wound following 3rd degree burn, 11th day post initiation of therapy): extensive granulation/angiogenic tissue | granulation/angiogenesis (chronic wounds; cellulitic wound following 3rd degree burn, third day of topical therapy): reasonable granulation/angiogenesis | blood cell intravasation in the wound area (chronic wounds; chronic diabetic ulcer, around 11th day post initiation of therapy): extensive blood cell intravasation | glandular structures (histopathology) (chronic wounds; chronic diabetic ulcer, topical): healthy glandular structures | angiogenic response (histopathology) (chronic wounds; chronic human wounds, topical): profuse angiogenic response; also recorded: Extensive angiogenic response | time to skin graft (clinical end point) (chronic wounds; chronic stump wound): around two weeks | granulation (chronic wounds; chronic stump wound, within two weeks of topical therapy): extensive granulation | Keratinocyte layer thickening (histopathology) (chronic wounds; experimental wounds of human origin): very advanced degree of Keratinocyte layer thickening | time to ready for skin graft (chronic wounds; infected third degree burn, post institution of therapy): 13 days | induction of granulation tissue/angiogenesis (chronic wounds; infected third degree burn, within around two weeks): remarkable induction of granulation tissue/angiogenesis | granulation/angiogenesis (chronic wounds; leprotic wound (about 3 yr old), topical): very good granulation/angiogenesi-s | reduction in size (chronic wounds; leprotic wound, about 12 weeks topical treatment): about 60% | time to initiation of repair-by-in-situ-regeneration (chronic wounds; topical and/or systemic therapy): 72 to 96 h | time to first appearance of healthy granulation tissue (chronic wounds; wounds of different locations, origins and durations): 72 to 96 h
